Data reported in patent US12582721B2, “Molybdenum-based feed supplement for bees” (UNIVERSITE DE VERSAILLES—SAINT-QUENTIN-EN-YVELINES, priority 2020, dated 2026).
“Also recorded” adds a separate entry of the source.

Legend:
[1] = test system: bee colonies; assay: 3rd test in the hives: winter mortality of colonies, California 2019; format: in vivo, bees; details: single dose 4 mg per hive, 25-28 Oct. 2019, counted Jan. 7, 2020; 26 of 75 lost; control hives 61.8%
Description: A treatment campaign was carried out in the autumn-winter in apiaries located in California, near San Francisco. This region is particularly vulnerable to winter mortality of bee colonies which can reach as high as 80% in some years.
151 hives, distributed over 6 different apiaries in California to the south of San Francisco were selected. The bees were of different types: Wildflower (VSH-Italian), Beeweaver, Carniolan Californian Bee (Pope Canyon), Californian bee Tom and Italian Californian bee (Sam).
The hives were Langstroth 2 body type hives (15 frames compared to 10 for Dadant hives in Europe).
2019 by syringe in the form of a concentrated aqueous solution (8 g/L) in a sugar syrup into the feeding frame. 0.5 mL of this solution was introduced and dispersed in 3.5 liters of sugar syrup at 65% sugar and introduced into the hive. […] The control hives only received sugar syrup.
The surviving colonies were counted on Jan. 7, 2020. A total of 73 colonies out of the initial 151 died, that is an overall mortality of 48.3%.

[2] = test system: bee colonies; assay: 4th test in the hives: winter mortality of colonies, California 2020; format: in vivo, bees; details: counted Dec. 31, 2020, 55 hives, Batch 1 27.3%
Description: A second treatment campaign was carried out in the autumn-winter 2020 in apiaries located in California, near San Francisco. This region is particularly vulnerable to winter mortality of bee colonies which can reach as high as 80% in some years.
220 hives distributed over 13 different apiaries in California to the south of San Francisco were selected. Each apiary comprised between 8 and 24 hives. The bees were of different types: 165 hives of Wildflower bees (VSH-Italian) and 55 hives of Beeweaver bees (VSH-Carniolan).
The hives were Langstroth 2 body type hives (15 frames compared to 10 for Dadant hives in Europe). […] 20, 2020 and Oct. 12, 2020.
1 apiary only contained Wildflower type bees. 2 apiaries only contained Beeweaver type bees. The other 10 apiaries comprised Wildflower and Beeweaver bees that were evenly distributed between the 4 batches.
The product Li—Mo2O4-EDTA was introduced on Sep. 20, 2020, and/or on Oct. 12, 2020 by syringe in the form of a concentrated aqueous solution (0.8 g/L) in a sugar syrup into the frame feeder. 10 mL of this solution were introduced and dispersed in 3.5 liters of sugar syrup at 65% sugar and introduced into the hive. […] The control hives only received sugar syrup.
The dead colonies were counted on Dec. 31, 2020. A total of 28 colonies were dead on 31 Dec. 2020, that is 12.73% of the total. The mortality rate is identical for Wildflower bees (21/165) and Beeweaver bees (7/55). The mortality per batch is distributed as follows: • Batch 1: 15 hives/55 hives, that is 27.3% losses • Batch 2: 0 hive/55 hives, that is 0% losses • Batch 3: 10 hives/55 hives, that is 18.2% losses • Batch 4: 3 hives/55 hives, that is 5.5% losses.

[3] = test system: bees; assay: Toxicity study on bees (lifespan of caged bees); format: in vivo
Description: Fifty newly hatched bees (age=1 day) were placed in a special cage with a wax strip, water and food, and were kept in the laboratory oven at a constant temperature of 33° C. and 50% humidity. […] The consumption of water and food was checked every day. Dead bees were counted and removed. For statistical reasons, the experiments were repeated up to 3 times if necessary.

SMILES	Winter mortality of colonies [1]	Mortality of colonies (losses) ([2]; Batch 2: fed on Sep. 20, 2020, 8 mg)	Mortality of colonies (losses) ([2]; Batch 3: fed on Oct. 12, 2020, 8 mg)	Mortality of colonies (losses) ([2]; Batch 4: fed on Sep. 20, 2020 and Oct. 12, 2020)	Survival of caged bees versus control group ([3]; 2 mg/L in sucrose solution, p>0.05, χ2=3.36)	Survival of caged bees versus control group ([3]; 20 mg/L in sucrose solution, p>0.05, χ2=0.04)
O.O.O.O.O.O.O=C([O-])CN(CCN(CC(=O)[O-])CC(=O)[O-])CC(=O)[O-].[Li+].[Li+].[O]=[Mo+]12[O][Mo+]1(=[O])[O]2 [Li—Mo2O4-EDTA, Li2[Mo2O4 (EDTA)]·6H2O]	34.7%	0%	18.2%	5.5%		
O.O.O.O.O.O=C([O-])CN(CCN(CC(=O)[O-])CC(=O)[O-])CC(=O)[O-].[Na+].[Na+].[O]=[Mo+]12[O][Mo+]1(=[O])[O]2 [Na—Mo2O4-EDTA, Na2[Mo2O4 (EDTA)]·5H2O]					no significant difference; also recorded: does not induce bee mortality	no significant difference; also recorded: does not induce bee mortality
